From patent US6387896B1, “Bicyclic oxazolidinones as antibacterial agents” (Pharmacia & Upjohn Co., priority 1999, dated 2002)
≈ marks a conversion by molar mass, not a printed value.

Tests used:
[1] = test system: Methicillin-susceptible S. aureus UC® 9213; experiment: Minimum inhibitory concentration (MIC) by agar dilution, S. aureus; assay type: cell-based; settings: Staphylococcus aureus, UC9213, lowest concentration that inhibits visible growth
Text: (§1) The oxazolidinone antibacterial agents of this invention have useful activity against a variety of organisms. The in vitro activity of compounds of this invention can be assessed by standard testing procedures such as the determination of minimum inhibitory concentration (MIC) by agar dilution as described in “Approved Standard. Methods for Dilution Antimicrobial Susceptibility Tests for Bacteria That Grow Aerobically”, 3rd. ed., published 1993 by the National Committee for Clinical Laboratory Standards, Villanova, Pa., USA. The activity of compounds of this invention against Staphylococcus aureus, Staphylococcus epidermidis, Streptococcus pneumoniae, Enterococcus faecalis, Moraxella catarrhalis and H. influenzae is shown in Table 1. No. 1 is Methicillin-susceptible S. aureus UC® 9213. No. 2 is Moraxella catarrhalis UC® 30610. Minimum inhibitory concentration: lowest concentration of drug (μg/mL) that inhibits visible growth of the organism.

[2] = test system: Moraxella catarrhalis UC® 30610; experiment: Minimum inhibitory concentration (MIC) by agar dilution, Moraxella catarrhalis; assay type: cell-based; settings: UC30610, lowest concentration that inhibits visible growth, read-out: Minimum Inhibitory Concentration M.CAT.
Text: as §1

Compound	MIC [1] [µg/mL]	MIC [2] [µg/mL]	melting point
CC(=O)NC[C@H]1CN(c2ccc3c(c2)CC(C)N3CCF)C(=O)O1 (stereo partly drawn) [Example 1, N-({(5S)-3-[1-(2-Fluoroethyl)-2-methyl-2,3-dihydro-1H-indol-5-yl]-2-oxo-1,3-oxazolidin-5-yl}methyl)acetamide]			127 to 130 °C
CC(=O)NC[C@H]1CN(c2ccc3c(c2)CC(C)N3C(=O)CO)C(=O)O1 (stereo partly drawn) [Example 2, N-{[(5S)-3-(1-Glycoloyl-2-methyl-2,3-dihydro-1H-indol-5-yl)-2-oxo-1,3-oxazolidin-5-yl]methyl}acetamide]			130 to 133 °C
CC(=O)NC[C@H]1CN(c2ccc3c(c2)C[C@@H](C)N3C(=O)CO)C(=O)O1 [Example 3, N-({(5S)-3-[(2R)-1-Glycoloyl-2-methyl-2,3-dihydro-1H-indol-5-yl]-2-oxo-1,3-oxazolidin-5-yl}methyl)acetamide]	4 (≈ 11.5 µM)	4 (≈ 11.5 µM)	
CC(=O)NC[C@H]1CN(c2ccc3c(c2)C[C@@H](C)N3C=O)C(=O)O1 [Example 4, N-({(5S)-3-[(2R)-1-Formyl-2-methyl-2,3-dihydro-1H-indol-5-yl]-2-oxo-1,3-oxazolidin-5-yl}methyl)acetamide]	1 (≈ 3.15 µM)	4 (≈ 12.6 µM)	158 to 159 °C
CCC(=O)NC[C@H]1CN(c2ccc3c(c2)C[C@@H](C)N3C=O)C(=O)O1 [Example 5, N-({(5S)-3-[(2R)-1-Formyl-2-methyl-2,3-dihydro-1H-indol-5-yl]-2-oxo-1,3-oxazolidin-5-yl}methyl)propanamide]	2 (≈ 6.04 µM)	4 (≈ 12.1 µM)	118 to 119 °C
CC(=S)NC[C@H]1CN(c2ccc3c(c2)C[C@@H](C)N3C=O)C(=O)O1 [Example 6, N-({(5S)-3-[(2R)-1-Formyl-2-methyl-2,3-dihydro-1H-indol-5-yl]-2-oxo-1,3-oxazolidin-5-yl}methyl)ethanethioamide]	< 0.5	1 (≈ 3 µM)	95 to 96 °C
COCC(=O)N1c2ccc(N3C[C@H](CNC(C)=O)OC3=O)cc2C[C@H]1C [Example 7, N-({(5S)-3-[(2R)-1-(2-Methoxyacetyl)-2-methyl-2,3-dihydro-1H-indol-5-yl]-2-oxo-1,3-oxazolidin-5-yl}methyl)acetamide]	4 (≈ 11.1 µM)	8 (≈ 22.1 µM)	174 to 175 °C
CC(=O)NC[C@H]1CN(c2ccc3c(c2)C[C@@H](C)N3C(=O)COC(C)=O)C(=O)O1 [Example 8, 2-((2R)-5-{(5S)-5-[(Acetylamino)methyl]-2-oxo-1,3-oxazolidin-3-yl}-2-methyl-2,3-dihydro-1H-indol-1-yl)-2-oxoethyl acetate]	8	16	186 to 187 °C
CC(=O)NC[C@H]1CN(c2ccc3c(c2)C[C@@H](C)N3C(C)=O)C(=O)O1 [Example 9, N-({(5S)-3-[(2R)-1-Acetyl-2-methyl-2,3-dihydro-1H-indol-5-yl]-2-oxo-1,3-oxazolidin-5-yl}methyl)acetamide]	2 (≈ 6.04 µM)	8 (≈ 24.1 µM)	184 to 185 °C
CNC(=S)N1c2ccc(N3C[C@H](CNC(C)=O)OC3=O)cc2C[C@H]1C [Example 10, N-[((5S)-3-{(2R)-2-Methyl-1-[(methylamino)carbothioyl]-2,3-dihydro-1H-indol-5-yl}-2-oxo-1,3-oxazolidin-5-yl)methyl]acetamide]	4 (≈ 11 µM)	8 (≈ 22.1 µM)	109 to 111 °C
CC(=O)OCC(=O)N1c2ccc(N3C[C@H](CNC(C)=S)OC3=O)cc2C[C@H]1C [Example 11, 2-((2R)-5-{(5S)-5-[(Ethanethioylamino)methyl]-2-oxo-1,3-oxazolidin-3-yl}-2-methyl-2,3-dihydro-1H-indol-1-yl)-2-oxoethyl acetate]	1	4	
CC(=S)NC[C@H]1CN(c2ccc3c(c2)C[C@@H](C)N3C(=O)CO)C(=O)O1 [Example 12, N-({(5S)-3-[(2R)-1-Glycoloyl-2-methyl-2,3-dihydro-1H-indol-5-yl]-2-oxo-1,3-oxazolidin-5-yl}methyl)ethanethioamide]	< 0.5	1 (≈ 2.75 µM)	115 to 117 °C
CN[C@H](CC(C)C)C(=O)N[C@H]1C(=O)N[C@@H](CC(N)=O)C(=O)N[C@H]2C(=O)N[C@H]3C(=O)N[C@H](C(=O)N[C@H](C(=O)O)c4cc(O)cc(O)c4-c4cc3ccc4O)[C@H](O)c3ccc(c(Cl)c3)Oc3cc2cc(c3O[C@@H]2O[C@H](CO)[C@@H](O)[C@H](O)[C@H]2O[C@H]2C[C@](C)(N)[C@H](O)[C@H](C)O2)Oc2ccc(cc2Cl)[C@H]1O [vancomycin, reference compound]	1 (≈ 0.69 µM)	> 32	

Further lines, results first:

MIC [1] [µg/mL]	MIC [2] [µg/mL]	melting point	Compound
4 (≈ 13.1 µM)	16 (≈ 52.2 µM)		CC(=O)NCC1CN(c2ccc3c(c2)CC(C)S3)C(=O)O1 (stereo in doubt) [Example 20, N-{[(5R)-3-(2(+)-methyl-2,3-dihydro-1-benzothien-5-yl)-2-oxo-1,3-oxazolidin-5-yl]methyl}acetamide]
		85 to 87 °C	CC(=O)NC[C@H]1CN(c2ccc3c(c2)CCC(C)N3C=O)C(=O)O1 (stereo partly drawn) [Example 13, N-{[(5S)-3-(1-Formyl-2-methyl-1,2,3,4-tetrahydro-6-quinolinyl)-2-oxo-1,3-oxazolidin-5-yl]methyl}acetamide]
2 (≈ 6.04 µM)	4 (≈ 12.1 µM)	89 to 91 °C	CC(=O)NC[C@H]1CN(c2ccc3c(c2)CC[C@@H](C)N3C=O)C(=O)O1 [Example 14, N-({(5S)-3-[(2R)-1-Formyl-2-methyl-1,2,3,4-tetrahydro-6-quinolinyl]-2-oxo-1,3-oxazolidin-5-yl}methyl)acetamide]
< 0.5	1 (≈ 2.88 µM)	184 to 186 °C	CC(=S)NC[C@H]1CN(c2ccc3c(c2)CC[C@@H](C)N3C=O)C(=O)O1 [Example 15, N-({(5S)-3-[(2R)-1-Formyl-2-methyl-1,2,3,4-tetrahydro-6-quinolinyl]-2-oxo-1,3-oxazolidin-5-yl}methyl)ethanethioamide]
		118 to 121 °C (dec.)	CC(=O)NC[C@H]1CN(c2ccc3c(c2)OCC(C)N3C=O)C(=O)O1 (stereo partly drawn) [Example 16, N-{[(5S)-3-(4-Formyl-3-methyl-3,4-dihydro-2H-1,4-benzoxazin-7-yl)-2-oxo-1,3-oxazolidin-5-yl]methyl}acetamide]
4 (≈ 12 µM)	8 (≈ 24 µM)	148 to 151 °C	CC(=O)NC[C@H]1CN(c2ccc3c(c2)OC[C@@H](C)N3C=O)C(=O)O1 [Example 17, N-({(5S)-3-[(3R)-4-Formyl-3-methyl-3,4-dihydro-2H-1,4-benzoxazin-7-yl]-2-oxo-1,3-oxazolidin-5-yl}methyl)acetamide]
< 0.5	2 (≈ 5.72 µM)	95 to 98 °C	CC(=S)NC[C@H]1CN(c2ccc3c(c2)OC[C@@H](C)N3C=O)C(=O)O1 [Example 18, N-({(5S)-3-[(3R)-4-Formyl-3-methyl-3,4-dihydro-2H-1,4-benzoxazin-7yl]-2-oxo-1,3-oxazolidin-5-yl}methyl)ethanethioamide]
4 (≈ 11.9 µM)	16 (≈ 47.7 µM)	132 to 136 °C	CC(=O)NC[C@H]1CN(c2ccc3c(c2)CC(CF)N3C=O)C(=O)O1 (stereo partly drawn) [Example 19, (S)-N-[[3-[1-Formyl-2-(fluoromethyl)-5-indolinyl]-2-oxo-5-oxazolidinyl]methyl]acetamide]
2 (≈ 5.33 µM)	4 (≈ 10.7 µM)	219 to 221 °C	CC(=S)NC[C@H]1CN(c2ccc3c(c2)CC(C(C)(C)C)N3C=O)C(=O)O1 (stereo partly drawn) [Example 21, N-[[(5S)-3-[2-(1,1-dimethylethyl)-1-formyl-2,3-dihydro-1H-indol-5-yl]-2-oxo-5-oxazolidinyl]methyl]ethanethioamide]
4 (≈ 10.1 µM)	8 (≈ 20.3 µM)		CC(=O)NC[C@H]1CN(c2ccc(N3CCN(C(=O)CO)CC3)c(F)c2)C(=O)O1 [eperezolid, reference compound]
4 (≈ 11.9 µM)	8 (≈ 23.7 µM)		CC(=O)NC[C@H]1CN(c2ccc(N3CCOCC3)c(F)c2)C(=O)O1 [linezolid, reference compound]
